ChEMBL document CHEMBL5154930, “Design, Synthesis, and Biological Evaluations of DOT1L Peptide Mimetics Targeting the Protein-Protein Interactions between DOT1L and MLL-AF9/MLL-ENL” (J Med Chem, 2022)
Calls of active or inactive are those of the source. The calls are words filed in the database; no cut-off is given here.

Experiments:
MOLM-13 [1] = experiment: Down regulation of CDK6 gene in human MOLM-13 cells by RNA-sequencing analysis; format: functional, cell-based
MOLM-13 [2] = experiment: Down regulation of ARID1B gene in human MOLM-13 cells by RNA-sequencing analysis; format: functional, cell-based
MOLM-13 [3] = experiment: Down regulation of […] gene in human MOLM-13 cells by RNA-sequencing analysis; format: functional, cell-based
MOLM-13 [4] = experiment: Down regulation of CNOT6L gene in human MOLM-13 cells by RNA-sequencing analysis; format: functional, cell-based
MOLM-13 [5] = experiment: Down regulation of HOXA9 gene in human MOLM-13 cells by RNA-sequencing analysis; format: functional, cell-based
MOLM-13 [6] = experiment: Down regulation of HOXA5 gene in human MOLM-13 cells by RNA-sequencing analysis; format: functional, cell-based
MOLM-13 [7] = experiment: Down regulation of TUBA1B gene in human MOLM-13 cells by RNA-sequencing analysis; format: functional, cell-based
MOLM-13 [8] = experiment: Down regulation of ARID2 gene in human MOLM-13 cells by RNA-sequencing analysis; format: functional, cell-based
MOLM-13 [9] = experiment: Down regulation of GBE1 gene in human MOLM-13 cells by RNA-sequencing analysis; format: functional, cell-based
MOLM-13 [10] = experiment: Down regulation of JMJD1C gene in human MOLM-13 cells by RNA-sequencing analysis; format: functional, cell-based
MOLM-13 [11] = experiment: Down regulation of RUNX1 gene in human MOLM-13 cells by RNA-sequencing analysis; format: functional, cell-based
MOLM-13 [12] = experiment: Down regulation of DCUN1D1 gene in human MOLM-13 cells by RNA-sequencing analysis; format: functional, cell-based
MOLM-13 [13] = experiment: Down regulation of HOXA3 gene in human MOLM-13 cells by RNA-sequencing analysis; format: functional, cell-based
MOLM-13 [14] = experiment: Down regulation of CDK1 gene in human MOLM-13 cells by RNA-sequencing analysis; format: functional, cell-based
MOLM-13 [15] = experiment: Down regulation of CDKN1B gene in human MOLM-13 cells by RNA-sequencing analysis; format: functional, cell-based
RS4-11 = experiment: Anticancer activity against human RS4-11 cells assessed as inhibition of cell growth treated for 8 days measured by CCK-8 kit method; format: functional, cell-based; settings: RS4-11, 192 h
MV4-11 = experiment: Anticancer activity against human MV4-11 cells assessed as inhibition of cell growth treated for 8 days measured by CCK-8 kit method; format: functional, cell-based; settings: MV4-11, 192 h
K562 = experiment: Anticancer activity against human K562 cells assessed as inhibition of cell growth treated for 8 days measured by CCK-8 kit method; format: functional, cell-based; settings: K562, 192 h
MOLM-13 [16] = experiment: Induction of apoptosis in human MOLM-13 cells at 0.125 to 0.5 uM treated for 7 days by Annexin V-FITC/PI staining based flow cytometry analysis; format: functional, cell-based; settings: dose 0.125-0.5 µM, time 7.0 day
MOLM-13 [17] = experiment: Inhibition of MEIS1 gene expression in human MOLM-13 cells measured at 0.125 to 0.5 uM after 6 days by RT-qPCR analysis; format: functional, cell-based; settings: dose 0.125-0.5 µM, time 6.0 day
MOLM-13 [18] = experiment: Inhibition of MEIS1 expression in human MOLM-13 cells at 0.25 uM by RT-qPCR analysis; format: functional, cell-based; settings: time 2-6 day, TDE = time-dependent effect
MOLM-13 [19] = experiment: Down regulation of HPGD gene in human MOLM-13 cells by RNA-sequencing analysis; format: functional, cell-based
MOLM-13 [20] = experiment: Inhibition of HOXA9 gene expression in human MOLM-13 cells measured at 0.125 to 0.5 uM after 6 days by RT-qPCR analysis; format: functional, cell-based; settings: dose 0.125-0.5 µM, time 6.0 day
MOLM-13 [21] = experiment: Inhibition of HOXA9 gene expression in human MOLM-13 cells at 0.25 uM by RT-qPCR analysis; format: functional, cell-based; settings: time 2-6 day, TDE = time-dependent effect
MOLM-13 [22] = experiment: Disruption of AF9-mediated DOT1L recruitment in human […] cells assessed as decrease in global H3K79 methylation level at 0.125 uM measured after 8 days by Western blotting analysis; format: cell-based; settings: time 8.0 day
MOLM-13 [23] = experiment: Inhibition of methylation of H3K79 in human MOLM-13 cells assessed as inhibition of methylation at HOXA1 gene cluster by chromatin immunoprecipitation assay; format: functional, cell-based
MOLM-13 [24] = experiment: Inhibition of methylation of H3K79 in human MOLM-13 cells assessed as inhibition of methylation at HOXA3 gene cluster by chromatin immunoprecipitation assay; format: functional, cell-based
MOLM-13 [25] = experiment: Inhibition of methylation of H3K79 in human MOLM-13 cells assessed as inhibition of methylation at […] gene cluster by chromatin immunoprecipitation assay; format: functional, cell-based
MOLM-13 [26] = experiment: Inhibition of methylation of H3K79 in human MOLM-13 cells assessed as inhibition of methylation at HOXA9 gene cluster by chromatin immunoprecipitation assay; format: functional, cell-based
MOLM-13 [27] = experiment: Inhibition of methylation of H3K79 in human MOLM-13 cells assessed as inhibition of methylation at HOXA13 gene cluster by chromatin immunoprecipitation assay; format: functional, cell-based
MOLM-13 [28] = experiment: Inhibition of methylation of H3K79 in human MOLM-13 cells assessed as inhibition of methylation at HOXA2 gene cluster by chromatin immunoprecipitation assay; format: functional, cell-based
MOLM-13 [29] = experiment: Inhibition of methylation of H3K79 in human MOLM-13 cells assessed as inhibition of methylation at HOXA4 gene cluster by chromatin immunoprecipitation assay; format: functional, cell-based
MOLM-13 [30] = experiment: Inhibition of methylation of H3K79 in human MOLM-13 cells assessed as inhibition of methylation at HOXA6 gene cluster by chromatin immunoprecipitation assay; format: functional, cell-based
MOLM-13 [31] = experiment: Inhibition of methylation of H3K79 in human MOLM-13 cells assessed as inhibition of methylation at HOXA10 gene cluster by chromatin immunoprecipitation assay; format: functional, cell-based
MOLM-13 [32] = experiment: Inhibition of methylation of H3K79 in human MOLM-13 cells assessed as inhibition of methylation at HOXA-AS2 gene cluster by chromatin immunoprecipitation assay; format: functional, cell-based
MOLM-13 [33] = experiment: Inhibition of methylation of H3K79 in human MOLM-13 cells assessed as inhibition of methylation at HOXA5 gene cluster by chromatin immunoprecipitation assay; format: functional, cell-based
MOLM-13 [34] = experiment: Inhibition of methylation of H3K79 in human MOLM-13 cells assessed as inhibition of methylation at HOXA7 gene cluster by chromatin immunoprecipitation assay; format: functional, cell-based
MOLM-13 [35] = experiment: Inhibition of methylation of H3K79 in human MOLM-13 cells assessed as inhibition of methylation at HOXA11 gene cluster by chromatin immunoprecipitation assay; format: functional, cell-based
MOLM-13 [36] = experiment: Inhibition of methylation of H3K79 in human MOLM-13 cells assessed as inhibition of methylation at MEIS1-AS3 gene cluster by chromatin immunoprecipitation assay; format: functional, cell-based
MOLM-13 [37] = experiment: Inhibition of methylation of H3K79 in human MOLM-13 cells assessed as inhibition of methylation at MEIS1 gene cluster by chromatin immunoprecipitation assay; format: functional, cell-based
MOLM-13 [38] = experiment: Down regulation of MEF2C gene in human MOLM-13 cells by RNA-sequencing analysis; format: functional, cell-based
MOLM-13 [39] = experiment: Down regulation of HOXA10 gene in human MOLM-13 cells by RNA-sequencing analysis; format: functional, cell-based
MOLM-13 [40] = experiment: Down regulation of PBX3 gene in human MOLM-13 cells by RNA-sequencing analysis; format: functional, cell-based
MOLM-13 [41] = experiment: Down regulation of SKP2 gene in human MOLM-13 cells by RNA-sequencing analysis; format: functional, cell-based
MOLM-13 [42] = experiment: Down regulation of SSBP2 gene in human MOLM-13 cells by RNA-sequencing analysis; format: functional, cell-based
MOLM-13 [43] = experiment: Down regulation of MCM2 gene in human MOLM-13 cells by RNA-sequencing analysis; format: functional, cell-based
MOLM-13 [44] = experiment: Down regulation of HOXA11 gene in human MOLM-13 cells by RNA-sequencing analysis; format: functional, cell-based
MOLM-13 [45] = experiment: Down regulation of GATA2 gene in human MOLM-13 cells by RNA-sequencing analysis; format: functional, cell-based
MOLM-13 [46] = experiment: Down regulation of AC011043.1 gene in human MOLM-13 cells by RNA-sequencing analysis; format: functional, cell-based
MOLM-13 [47] = experiment: Down regulation of MEIS1 gene in human MOLM-13 cells by RNA-sequencing analysis; format: functional, cell-based
MOLM-13 [48] = experiment: cells; settings: Homo sapiens, MOLM-13, 192 h
Description: Anticancer activity against human MOLM-13 cells harbouring MLL-AF9 assessed as inhibition of cell growth treated for 8 days measured by CCK-8 kit method

KOPN-8 = experiment: cells; settings: Homo sapiens, KOPN-8, 192 h
Description: Anticancer activity against human KOPN-8 cells harbouring MLL-ENL assessed as inhibition of cell growth treated for 8 days measured by CCK-8 kit method

MOLM-13 [49] = experiment: cells; settings: Homo sapiens, MOLM-13, 96 h
Description: Anticancer activity against human MOLM-13 cells harbouring MLL-AF9 assessed as inhibition of cell growth treated for 4 days measured by CCK-8 kit method

MOLM-13 [50] = experiment: cells; settings: Homo sapiens, MOLM-13, 120 h
Description: Anticancer activity against human MOLM-13 cells harbouring MLL-AF9 assessed as inhibition of cell growth treated for 5 days measured by CCK-8 kit method

MOLM-13 [51] = experiment: cells; settings: Homo sapiens, MOLM-13, 144 h
Description: Anticancer activity against human MOLM-13 cells harbouring MLL-AF9 assessed as inhibition of cell growth treated for 6 days measured by CCK-8 kit method

MOLM-13 [52] = experiment: cells; settings: Homo sapiens, MOLM-13, 168 h
Description: Anticancer activity against human MOLM-13 cells harbouring MLL-AF9 assessed as inhibition of cell growth treated for 7 days measured by CCK-8 kit method

MOLM-13 [53] = experiment: cells; settings: Homo sapiens, MOLM-13, 216 h
Description: Anticancer activity against human MOLM-13 cells harbouring MLL-AF9 assessed as inhibition of cell growth treated for 9 days measured by CCK-8 kit method

`CC(C)N(C[C@H]1O[C@@H](n2cnc3c(N)ncnc32)[C@H](O)[C@@H]1O)[C@H]1C[C@@H](CCc2nc3cc(C(C)(C)C)ccc3[nH]2)C1` [PINOMETOSTAT] was tested, and the Activity (MOLM-13 [1]) was “Active”, the Activity (MOLM-13 [2]) was “Active” and the Activity (MOLM-13 [3]) was “Active”. The Activity (MOLM-13 [4]) was “Active”, the Activity (MOLM-13 [5]) was “Active” and the Activity (MOLM-13 [6]) was “Active”. The Activity (MOLM-13 [7]) was “Active”, the Activity (MOLM-13 [8]) was “Active” and the Activity (MOLM-13 [9]) was “Active”. For the same compound, the Activity (MOLM-13 [10]) was “Active”, the Activity (MOLM-13 [11]) was “Active” and the Activity (MOLM-13 [12]) was “Active”. For the same compound, the Activity (MOLM-13 [13]) was “Active”, the Activity (MOLM-13 [14]) was “Active” and the Activity (MOLM-13 [15]) was “Active”. For the same compound, the IC50 (RS4-11) was 0.07 µM, the IC50 (MV4-11) was 0.05 µM and the IC50 (K562) was 31 µM. The Activity (MOLM-13 [16]) was “Active”, the inhibition (MOLM-13 [17]) was “Active” and the inhibition (MOLM-13 [18]) was “Tde”. For the same compound, the Activity (MOLM-13 [19]) was “Active”, the inhibition (MOLM-13 [20]) was “Active” and the inhibition (MOLM-13 [21]) was “Tde”. For the same compound, the inhibition (MOLM-13 [22]) was 100%, the inhibition (MOLM-13 [23]) was “Active” and the inhibition (MOLM-13 [24]) was “Active”. For the same compound, the inhibition (MOLM-13 [25]) was “Active”, the inhibition (MOLM-13 [26]) was “Active” and the inhibition (MOLM-13 [27]) was “Active”. The inhibition (MOLM-13 [28]) was “Active”, the inhibition (MOLM-13 [29]) was “Active” and the inhibition (MOLM-13 [30]) was “Active”. The inhibition (MOLM-13 [31]) was “Active”, the inhibition (MOLM-13 [32]) was “Active” and the inhibition (MOLM-13 [33]) was “Active”. The inhibition (MOLM-13 [34]) was “Active”, the inhibition (MOLM-13 [35]) was “Active” and the inhibition (MOLM-13 [36]) was “Active”. For the same compound, the inhibition (MOLM-13 [37]) was “Active”, the Activity (MOLM-13 [38]) was “Active” and the Activity (MOLM-13 [39]) was “Active”. The Activity (MOLM-13 [40]) was “Active”, the Activity (MOLM-13 [41]) was “Active” and the Activity (MOLM-13 [42]) was “Active”. For the same compound, the Activity (MOLM-13 [43]) was “Active”, the Activity (MOLM-13 [44]) was “Active” and the Activity (MOLM-13 [45]) was “Active”. For the same compound, the Activity (MOLM-13 [46]) was “Active”, the Activity (MOLM-13 [47]) was “Active” and the IC50 (MOLM-13 [48]) was 0.03 µM. For the same compound, the IC50 (KOPN-8) was 0.06 µM, the IC50 (MOLM-13 [49]) was 0.227 µM and the IC50 (MOLM-13 [50]) was 0.097 µM. For the same compound, the IC50 (MOLM-13 [51]) was 0.073 µM, the IC50 (MOLM-13 [52]) was 0.059 µM and the IC50 (MOLM-13 [53]) was 0.021 µM.
